Assay results: patent US12098144B2, “Piperazine indazole glucocorticoid receptor antagonists” (Corcept Therapeutics Incorporated, priority 2021, dated 2024)

Biological target: T1, glucocorticoid receptor (Homo sapiens, UniProt P04150)
T1 construct: endogenous in cells; ATCC cat
T1 sequence (P04150 1-777): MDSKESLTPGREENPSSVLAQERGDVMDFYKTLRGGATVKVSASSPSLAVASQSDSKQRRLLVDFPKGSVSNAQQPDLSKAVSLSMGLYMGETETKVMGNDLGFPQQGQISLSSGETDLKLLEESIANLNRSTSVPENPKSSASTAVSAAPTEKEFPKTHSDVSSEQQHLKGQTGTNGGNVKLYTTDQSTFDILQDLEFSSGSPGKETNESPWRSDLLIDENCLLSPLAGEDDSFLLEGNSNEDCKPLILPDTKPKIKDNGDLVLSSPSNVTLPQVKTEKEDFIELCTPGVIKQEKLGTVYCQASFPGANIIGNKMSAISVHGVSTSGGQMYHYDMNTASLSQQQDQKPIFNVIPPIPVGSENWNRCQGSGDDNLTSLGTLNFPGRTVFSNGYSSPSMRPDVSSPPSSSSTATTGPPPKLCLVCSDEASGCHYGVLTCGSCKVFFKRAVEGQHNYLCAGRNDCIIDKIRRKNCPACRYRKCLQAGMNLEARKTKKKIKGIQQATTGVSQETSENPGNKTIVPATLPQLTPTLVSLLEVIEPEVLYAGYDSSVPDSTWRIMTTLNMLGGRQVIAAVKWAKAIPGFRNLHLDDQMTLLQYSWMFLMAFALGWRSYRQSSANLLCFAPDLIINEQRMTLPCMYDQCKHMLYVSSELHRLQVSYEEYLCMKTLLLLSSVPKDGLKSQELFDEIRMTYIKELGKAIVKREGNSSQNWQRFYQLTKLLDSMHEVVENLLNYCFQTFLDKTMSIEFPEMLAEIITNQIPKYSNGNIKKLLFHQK
Test: Hep G2 TAT Ki: inhibition of dexamethasone-induced TAT in HepG2 cells (96 well)
Format: cell-based
Conditions: challenge of 100 nM dexamethasone, IC50 converted to Ki by Cheng and Prusoff equation
Procedure, shortened: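 Cells lysed 15 min at 4 °C; TAT enzyme reaction 2 h at 37 °C, stopped with KOH, 30 min further at 37 °C. Inhibition fitted to 4-parameter logistic.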

SMILES	Ki [nM]
Cc1cc2c(cnn2-c2ccc(F)cc2)cc1C1CN(S(=O)(=O)c2cnn(C)n2)CCN1CC1CCCO1 (single isomer, unassigned) [Example 120, 1-(4-fluorophenyl)-6-methyl-5-(4-((2-methyl-2H-1,2,3-triazol-4-yl)sulfonyl)-1-((tetrahydrofuran-2-yl)methyl)piperazin-2-yl)-1H-indazole]	65
Cc1cc2c(cnn2-c2ccc(=O)n(C)c2)cc1C1CN(S(=O)(=O)c2cnn(C)n2)CCN1CCC(F)(F)F (stereo not shown) [Example 165, 1-methyl-5-(6-methyl-5-(4-((2-methyl-2H-1,2,3-triazol-4-yl)sulfonyl)-1-(3,3,3-trifluoropropyl)piperazin-2-yl)-1H-indazol-1-yl)pyridin-2(1H)-one]	81
Cc1cc2c(cnn2-c2ccc(F)cc2)cc1C1CN(S(=O)(=O)c2cnn(C)n2)CCN1CC1CC1(F)F (single isomer, unassigned) [Example 160, 5-(1-((2,2-difluorocyclopropyl)methyl)-4-((2-methyl-2H-1,2,3-triazol-4-yl)sulfonyl)piperazin-2-yl)-1-(4-fluorophenyl)-6-methyl-1H-indazole]	32
Cc1cc2c(cnn2-c2ccc(F)cc2)cc1C1CN(S(=O)(=O)c2cnn(C)c2C)CCN1CCC(F)(F)F (single isomer, unassigned) [Example 129, 5-(4-((1,5-dimethyl-1H-pyrazol-4-yl)sulfonyl)-1-(3,3,3-trifluoropropyl)piperazin-2-yl)-1-(4-fluorophenyl)-6-methyl-1H-indazole]	13
Cc1cc2c(cnn2-c2ccc(F)cc2)cc1C1CN(S(=O)(=O)c2cnn(CC(F)(F)F)n2)CCN1CC(C)C (single isomer, unassigned) [Example 95, 1-(4-fluorophenyl)-5-(1-isobutyl-4-((2-(2,2,2-trifluoroethyl)-2H-1,2,3-triazol-4-yl)sulfonyl)piperazin-2-yl)-6-methyl-1H-indazole]	100
Cc1cc2c(cnn2-c2ccc(F)cc2)cc1C1CN(S(=O)(=O)c2cncs2)CCN1CC(C)C (single isomer, unassigned) [Example 58, 5-((3-(1-(4-fluorophenyl)-6-methyl-1H-indazol-5-yl)-4-isobutylpiperazin-1-yl)sulfonyl)thiazole]	15
CC(C)CN1CCN(S(=O)(=O)c2cnn(C)n2)CC1c1cc2cnn(-c3ccc(F)cc3)c2cc1C(F)(F)F (stereo not shown) [Example 164, 1-(4-fluorophenyl)-5-(1-isobutyl-4-((2-methyl-2H-1,2,3-triazol-4-yl)sulfonyl)piperazin-2-yl)-6-(trifluoromethyl)-1H-indazole]	170
Cc1cc2c(cnn2-c2cnn(C)c2)cc1C1CN(S(=O)(=O)c2cnn(C)n2)CCN1CCC(F)(F)F (stereo not shown) [Example 168, 6-methyl-1-(1-methyl-1H-pyrazol-4-yl)-5-(4-((2-methyl-2H-1,2,3-triazol-4-yl)sulfonyl)-1-(3,3,3-trifluoropropyl)piperazin-2-yl)-1H-indazole]	100
Cc1cc2c(cnn2-c2ccc(F)cc2)cc1[C@@H]1CN(S(=O)(=O)c2cnn(C)n2)CCN1CCC(F)(F)F [Example 84, (R)-1-(4-fluorophenyl)-6-methyl-5-(4-((2-methyl-2H-1,2,3-triazol-4-yl)sulfonyl)-1-(3,3,3-trifluoropropyl)piperazin-2-yl)-1H-indazole]	14
Cc1cc2c(cnn2-c2ccc(F)cc2)cc1C1CN(S(=O)(=O)c2cnn(C)c2)CCN1CC(C)C (single isomer, unassigned) [Example 64, 1-(4-fluorophenyl)-5-(1-isobutyl-4-((1-methyl-1H-pyrazol-4-yl)sulfonyl)piperazin-2-yl)-6-methyl-1H-indazole]	50
Cc1cc2c(cnn2-c2ccc(F)cc2)cc1C1CN(S(=O)(=O)c2ccccn2)CCN1CCC(F)(F)F (single isomer, unassigned) [Example 139, 1-(4-fluorophenyl)-6-methyl-5-(4-(pyridin-2-ylsulfonyl)-1-(3,3,3-trifluoropropyl)piperazin-2-yl)-1H-indazole]	37
Cc1cc2c(cnn2-c2ccc(F)cc2)cc1C1CN(S(=O)(=O)c2nccs2)CCN1CC(C)C (single isomer, unassigned) [Example 109, 2-((3-(1-(4-fluorophenyl)-6-methyl-1H-indazol-5-yl)-4-isobutylpiperazin-1-yl)sulfonyl)thiazole]	12
Cc1cc2c(cnn2-c2ccc(F)cc2)cc1C1CN(S(=O)(=O)c2cccnc2)CCN1CCC(F)(F)F (single isomer, unassigned) [Example 132, 1-(4-fluorophenyl)-6-methyl-5-(4-(pyridin-3-ylsulfonyl)-1-(3,3,3-trifluoropropyl)piperazin-2-yl)-1H-indazole]	13
Cc1cc2c(cnn2-c2ccc(F)cc2)cc1C1CN(S(=O)(=O)c2cnn(C)c2C)CCN1CC(C)C (single isomer, unassigned) [Example 57, 5-(4-((1,5-dimethyl-1H-pyrazol-4-yl)sulfonyl)-1-isobutylpiperazin-2-yl)-1-(4-fluorophenyl)-6-methyl-1H-indazole]	19
Cc1cc2c(cnn2-c2ccc(F)cc2)cc1C1CN(S(=O)(=O)c2cnn(C)n2)CCN1CC1CC1 (stereo not shown) [Example 12, 5-(1-(cyclopropylmethyl)-4-((2-methyl-2H-1,2,3-triazol-4-yl)sulfonyl)piperazin-2-yl)-1-(4-fluorophenyl)-6-methyl-1H-indazole]	68
COc1ccc(CN2CCN(S(=O)(=O)c3cnn(C)n3)CC2c2cc3cnn(-c4ccc(F)cc4)c3cc2C)cc1 (stereo not shown) [Example 3, 1-(4-fluorophenyl)-5-(1-(4-methoxybenzyl)-4-((2-methyl-2H-1,2,3-triazol-4-yl)sulfonyl)piperazin-2-yl)-6-methyl-1H-indazole]	85

Further compounds by falling Ki, results first:

Ki [nM]	SMILES
520	Cc1cc2c(cnn2-c2ccc(F)cc2)cc1C1CN(S(=O)(=O)c2cnn(C)n2)CCN1CC1COC1 (stereo not shown) [Example 16, 1-(4-fluorophenyl)-6-methyl-5-(4-((2-methyl-2H-1,2,3-triazol-4-yl)sulfonyl)-1-(oxetan-3-ylmethyl)piperazin-2-yl)-1H-indazole]
260	CCN1CCN(S(=O)(=O)c2cnn(C)n2)CC1c1cc2cnn(-c3ccc(F)cc3)c2cc1C (stereo not shown) [Example 15, 5-(1-ethyl-4-((2-methyl-2H-1,2,3-triazol-4-yl)sulfonyl)piperazin-2-yl)-1-(4-fluorophenyl)-6-methyl-1H-indazole]
190	Cc1cc2c(cnn2-c2ccc(F)cc2)cc1C1CN(S(=O)(=O)c2cnn(C)n2)CCN1CC1CNC(=O)C1 (single isomer, unassigned) [Example 118, 4-((2-(1-(4-fluorophenyl)-6-methyl-1H-indazol-5-yl)-4-((2-methyl-2H-1,2,3-triazol-4-yl)sulfonyl)piperazin-1-yl)methyl)pyrrolidin-2-one]
87	CC(=O)CN1CCN(S(=O)(=O)c2cnn(C)n2)CC1c1cc2cnn(-c3ccc(F)cc3)c2cc1C (single isomer, unassigned) [Example 125, 1-(2-(1-(4-fluorophenyl)-6-methyl-1H-indazol-5-yl)-4-((2-methyl-2H-1,2,3-triazol-4-yl)sulfonyl)piperazin-1-yl)propan-2-one]
77	Cc1cc2c(cnn2-c2ccc(F)cc2)cc1C1CN(S(=O)(=O)c2cnn(C)n2)CCN1C1CCC1 (single isomer, unassigned) [Example 25, 5-(1-cyclobutyl-4-((2-methyl-2H-1,2,3-triazol-4-yl)sulfonyl)piperazin-2-yl)-1-(4-fluorophenyl)-6-methyl-1H-indazole]
62	Cc1cc2c(cnn2-c2ccc(F)cc2)cc1[C@H]1CN(S(=O)(=O)c2cnn(C)n2)C[C@@H](C)N1CC(C)C (single isomer, unassigned) [Example 126]
54	Cc1cc2c(cnn2-c2ccc(F)cc2)cc1C1CN(S(=O)(=O)c2cnn(C)n2)CC(C)N1CC(C)C (stereo not shown) [Example 87, 1-(4-fluorophenyl)-5-(1-isobutyl-6-methyl-4-((2-methyl-2H-1,2,3-triazol-4-yl)sulfonyl)piperazin-2-yl)-6-methyl-1H-indazole]
38	Cc1cc2c(cnn2-c2ccc(F)cc2)cc1C1CN(S(=O)(=O)c2ccc(C#N)nc2)CCN1CC(C)C (single isomer, unassigned) [Example 117, 5-((3-(1-(4-fluorophenyl)-6-methyl-1H-indazol-5-yl)-4-isobutylpiperazin-1-yl)sulfonyl)picolinonitrile]
13	CCn1cc(S(=O)(=O)N2CCN(CCC(F)(F)F)C(c3cc4cnn(-c5ccc(F)cc5)c4cc3C)C2)cn1 (single isomer, unassigned) [Example 131, 5-(4-((1-ethyl-1H-pyrazol-4-yl)sulfonyl)-1-(3,3,3-trifluoropropyl)piperazin-2-yl)-1-(4-fluorophenyl)-6-methyl-1H-indazole]
